{"source": "the supplement of paper PMC10307832", "experiment_in_all_cases": "relative viability (nuclei count vs DMSO), 5 days (fraction); higher = more cells survive", "key": {"[1]": {"compound": "Cn1c(=O)n(-c2ccc(C(C)(C)C#N)cc2)c2c3cc(-c4cnc5ccccc5c4)ccc3ncc21 [Dactolisib]", "procedure,_shortened": "(§1)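 In 1536-well plates, lung cancer cell lines rested overnight at 37 °C before five library-drug doses (not always all listed), √10 apart, were pinned onto vehicle-anchored plates. Nuclei were counted with MetaXpress from 4× Hoechst images taken after 5 days without medium change. Viability compares treated-well with vehicle-well nuclei as a median over plates, and plates needed control CV below 25% plus at least one doubling to pass.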"}, "[2]": {"compound": "C1CCC(CC1)N(CCNCCC2=C3C(=C(C=C2)O)NC(=O)CO3)C(=O)CCNCCC4=CC(=C(C=C4)Cl)Cl [AZ505]", "procedure,_shortened": "as §1"}, "[3]": {"compound": "C1CCC(CC1)N(CCNCCC2=C3C(=C(C=C2)O)NC(=O)CO3)C(=O)CCNCCC4=CC(=C(C=C4)Cl)Cl [AZ505] + Nc1ncn([C@H]2C[C@H](O)[C@@H](CO)O2)c(=O)n1 [Decitabine] (partner 2 µM)", "procedure,_shortened": "(§2)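 Five library-drug doses in √10 steps were combined with a fixed anchor-drug dose, or a single drug was given alone, by pin tool to lung cancer cell lines in 1536-well plates the day after seeding. Nuclei were stained and counted after 5 days. Relative viability is the nuclei count in treated wells over that in vehicle wells, taken as the median of duplicate plates.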"}, "[4]": {"compound": "C1CCC(CC1)N(CCNCCC2=C3C(=C(C=C2)O)NC(=O)CO3)C(=O)CCNCCC4=CC(=C(C=C4)Cl)Cl [AZ505] + O=C(CCCCCCC(=O)Nc1ccccc1)NO [Vorinostat] (partner 1 µM)", "procedure,_shortened": "as §2"}}, "data": [{"cell line": "UMC-11", "values": [{"measurement": "relative viability", "setting": "[1]; 0.002 µM", "value": 0.96}, {"measurement": "relative viability", "setting": "[1]; 0.006325 µM", "value": 0.836}, {"measurement": "relative viability", "setting": "[1]; 0.02 µM", "value": 0.77}, {"measurement": "relative viability", "setting": "[1]; 0.06325 µM", "value": 0.398}, {"measurement": "relative viability", "setting": "[1]; 0.2 µM", "value": 0.273}, {"measurement": "relative viability", "setting": "[2]; 0.08 µM", "value": 0.887}, {"measurement": "relative viability", "setting": "[2]; 0.253 µM", "value": 0.994}, {"measurement": "relative viability", "setting": "[2]; 0.8 µM", "value": 0.94}, {"measurement": "relative viability", "setting": "[2]; 2.53 µM", "value": 1.07}, {"measurement": "relative viability", "setting": "[2]; 8 µM", "value": 1.03}, {"measurement": "relative viability", "setting": "[3]; first compound 0.08 µM", "value": 0.742}, {"measurement": "relative viability", "setting": "[3]; first compound 0.253 µM", "value": 0.674}, {"measurement": "relative viability", "setting": "[3]; first compound 0.8 µM", "value": 0.53}, {"measurement": "relative viability", "setting": "[3]; first compound 2.53 µM", "value": 0.52}, {"measurement": "relative viability", "setting": "[3]; first compound 8 µM", "value": 0.666}, {"measurement": "relative viability", "setting": "[4]; first compound 0.08 µM", "value": 0.371}, {"measurement": "relative viability", "setting": "[4]; first compound 0.253 µM", "value": 0.433}, {"measurement": "relative viability", "setting": "[4]; first compound 0.8 µM", "value": 0.367}, {"measurement": "relative viability", "setting": "[4]; first compound 2.53 µM", "value": 0.434}, {"measurement": "relative viability", "setting": "[4]; first compound 8 µM", "value": 0.397}]}]}
